Measured values from patent US10098840B2, “Nanoparticulate composition containing antibiotics for intramammary administration in animals” (priority 2010, dated 2018).

Assays:
[1] = Degradation of the drug by HPLC during the dissolution test at pH 7.4; assay type: physicochemical; details: until 540 minutes of test
Description: In this work, the dissolution was conducted in pH 7.4 for it is about the pH of the milk of animals with mastitis (Gruet et al., 2001).

[2] = In vitro release profile of cloxacillin benzathine by direct dialysis in PBS:PEG and PBS:milk; assay type: physicochemical; details: 37° C.; PBS:PEG vs PBS:milk
Description: The evaluation of the release profile in vitro of the cloxacillin benzathine from the nanocarriers of reservoir type was performed according to the direct dialysis technique in two different release environments. Dialysis bags were inserted in containers containing a buffered saline solution and 1% polyethylene glycol 300 (PBS:PEG) or a buffered saline containing 1% of skimmed milk (PBS:milk) under 37° C. with moderate stirring. […] In pre-defined lapses, aliquots were removed and the environment was re-added with the same volume withdrawn. Right after, the samples were prepared and the supernatant dosed.

degradation of the drug [1]: no degradation
Compound: Cc1onc(-c2ccccc2Cl)c1C(=O)N[C@@H]1C(=O)N2[C@@H]1SC(C)(C)[C@@H]2C(=O)O [CLOXB, cloxacillin benzathine]
release depending on the environment (1% PEG vs 1% milk), in words [2]: release was bigger in environment containing 1% of PEG
